This note sets out measurements from patent US20210093645A1, “COMBINATION ANTI CANCER THERAPY WITH AN IAP ANTAGONIST AND AN ANTI PD-1 MOLECULE” (Debiopharm International S.A., priority 2017, published 2021).

For one assay, the system named is CD8+ T-lymphocytes. The experiment in a line: immunohistochemistry of tumor biopsies before and after Debio 1143, CD8 staining. The format is in vivo, human. Particulars: head & neck cancer patients, n=12; 200 mg Debio 1143 p.o. daily day 1 to 15; biopsy after vs before treatment. The method, then: (§1) The study enrolled adult patients with newly diagnosed histologically proven squamous cell carcinoma of the oral cavity, oropharynx, hypopharynx or larynx. During a screening period of two weeks (days −14 to −1), a tumor biopsy was taken and analyzed. Treatment was from day 1 to day 15 (+/−2 days) and consisted (in one arm) of daily administration p.o. of 200 mg Debio 1143. At the end of this treatment period, a second tumor biopsy was taken and analyzed, and the patients underwent surgery. T cells were identified using CD3 rabbit mAb 2GV6 from Ventana Roche (provided as a ready-to-use solution). Slides were processed on a Ventana Benchmark Ultra automaton. Exposure to antibody was 20 min. Pretreatment of the slides (64 min) was with cell conditioning solution CC1 (Ventana); the Optiview system (Ventana) (chromogen: DAB) was employed for visualization of the signal. Staining of CD8 and CD4 T cells was by the same protocol. The CD8 antibody was the SP57 rabbit mAb, and the CD4 antibody was the SP35 rabbit mAb. Both antibodies were from Ventana Roche and were provided as ready-to-use solutions. The antibody selected for PD-1 detection was the NAT105 mouse mAb that was also provided as a ready-to-use solution (Cell Marque). The protocol for PD-1 detection was the same as that used for CD3 staining, except that antibody exposure and pretreatment times were each 16 min.

Assay [1] has as its system syngeneic colon carcinoma cell line CT26. As to the kind of experiment: CT26 syngeneic tumor model, Debio 1143 pretreatment then anti-PD-1 (Example 4). The format is in vivo, BALB/c mice. The method, then: Five groups (n=8) of adult female BALB/c mice (obtained from Shanghai Lingchang Bio-Technology Co.) were inoculated in the right lower flank with 0.5×10^6 cells of the syngeneic colon carcinoma cell line CT26. When average tumor size reached about 50 mm^3 (day 1), animals received either pretreatment consisting of p.o. SMAC mimetic Debio 1143 (Debiopharm) at a dose of 100 mg/kg or vehicle as indicated in Table 3a. The dosing was repeated on each day for 7 days (day 1-7). […] Another set of two groups (vehicle- and Debio 1143-pretreated animals) received biweekly i.p. 10 mg/kg of anti-PD-1 antibody (Mouse surrogate antibody, anti-mouse PD-1, Clone: RMP1-14, BioXcell). A final group of Debio 1143-pretreated animals received both anti-PD-1 antibody as well as was continued on daily Debio 1143. Tumor volumes and body weights were assessed trice weekly. Tumor size was measured in two dimensions using a caliper, and the volume was expressed in mm^3 using the formula: V=0.5 a×b^2 where a and b are the long and short diameters of the tumor, respectively.

For the next assay, the system named is PD-L1. The experiment in a line: immunohistochemistry of tumor biopsies before and after Debio 1143, PD-L1 staining. The format is in vivo, human. Particulars: head & neck cancer patients, n=12; 200 mg Debio 1143 p.o. daily day 1 to 15; biopsy after vs before treatment. The method, then:
(§2) The study enrolled adult patients with newly diagnosed histologically proven squamous cell carcinoma of the oral cavity, oropharynx, hypopharynx or larynx. During a screening period of two weeks (days −14 to −1), a tumor biopsy was taken and analyzed. Treatment was from day 1 to day 15 (+/−2 days) and consisted (in one arm) of daily administration p.o. of 200 mg Debio 1143. At the end of this treatment period, a second tumor biopsy was taken and analyzed, and the patients underwent surgery. Biopsies were analyzed by immunohistochemical methods. Staining for cIAP1 was carried out using a Dako autostainer automaton (Agilent). The EPR4673 […] mAb (Abcam) was utilized at a 1/100 dilution, and tissue slides were exposed to the antibody for 20 min. Pretreatment of the slides was with EnVision FLEX Target Retrieval Solution, Low pH; the EnVision FLEX system (chromogen: DAB) was employed for visualization of the signal. EnVision Flex system and reagent were from Agilent. The same protocol was applied for PD-L1 staining. The E1 L3N rabbit mAb (Cell Signaling Technology) was used at a 1/500 dilution.

For assay [2], the system named is syngeneic colon carcinoma cell line MC38. The experiment in a line: MC38 syngeneic tumor model, Debio 1143 pretreatment then anti-PD-L1 (Example 2). It is filed as in vivo, C57BL/6J mice. The method, then: Five groups (n=8) of adult female C57BL/6J mice (obtained from Shanghai Lingchang Bio-Technology Co.) were inoculated in the right lower flank with 1×10^6 cells of the syngeneic colon carcinoma cell line MC38. When average tumor size reached about 50 mm^3 (day 1), animals received either pretreatment consisting of p.o. SMAC mimetic Debio 1143 (Debiopharm) at a dose of 100 mg/kg or vehicle as indicated in Table 1. The dosing was repeated on each day for 7 days (day 1-7). On the subsequent day (day 8), animals of a vehicle-treated group and a Debio 1143-pretreated group were given i.p. 10 mg/kg of control antibody rlgG2b (Clone: LTF-2, BioXcell). Control antibody was administered twice weekly until the end of the study. Another set of two groups (vehicle- and Debio 1143-pretreated animals) received i.p. 10 mg/kg of anti-PD-L1 antibody (Mouse surrogate antibody, anti-mouse PD-L1, Clone: 10F.9G2, BioXcell). Administration was repeated twice weekly as for the control antibody. A final group of Debio 1143-pretreated animals received both anti-PD-L1 antibody as well as was continued on daily Debio 1143. Tumor volumes and body weights were assessed trice weekly. Tumor size was measured in two dimensions using a caliper, and the volume was expressed in mm^3 using the formula: V=0.5 a×b^2 where a and b are the long and short diameters of the tumor, respectively.

The next assay concerns PD-1. As to the kind of experiment: immunohistochemistry of tumor biopsies before and after Debio 1143, PD-1 staining. It is filed as in vivo, human. Particulars: head & neck cancer patients, n=12; 200 mg Debio 1143 p.o. daily day 1 to 15; biopsy after vs before treatment. The method, then: as §1
In another assay the test system is CD4+ T-lymphocytes. The experiment in a line: immunohistochemistry of tumor biopsies before and after Debio 1143, CD4 staining. The format is in vivo, human. Particulars: head & neck cancer patients, n=12; 200 mg Debio 1143 p.o. daily day 1 to 15; biopsy after vs before treatment. The method, then:
as §1

The target of a further assay is T1, cIAP1 (Homo sapiens, UniProt Q13490).
T1 construct: from tissue; host or cells: tumor biopsies of patients with squamous cell carcinoma of the head and neck
The experiment in a line: immunohistochemistry of tumor biopsies before and after Debio 1143, cIAP1 staining. The format is in vivo. Particulars: head & neck cancer patients, n=12; 200 mg Debio 1143 p.o. daily day 1 to 15; biopsy after vs before treatment. The method, then:
as §2

“Also recorded” adds a separate entry of the source.

T1 sequence (Q13490 whole entry): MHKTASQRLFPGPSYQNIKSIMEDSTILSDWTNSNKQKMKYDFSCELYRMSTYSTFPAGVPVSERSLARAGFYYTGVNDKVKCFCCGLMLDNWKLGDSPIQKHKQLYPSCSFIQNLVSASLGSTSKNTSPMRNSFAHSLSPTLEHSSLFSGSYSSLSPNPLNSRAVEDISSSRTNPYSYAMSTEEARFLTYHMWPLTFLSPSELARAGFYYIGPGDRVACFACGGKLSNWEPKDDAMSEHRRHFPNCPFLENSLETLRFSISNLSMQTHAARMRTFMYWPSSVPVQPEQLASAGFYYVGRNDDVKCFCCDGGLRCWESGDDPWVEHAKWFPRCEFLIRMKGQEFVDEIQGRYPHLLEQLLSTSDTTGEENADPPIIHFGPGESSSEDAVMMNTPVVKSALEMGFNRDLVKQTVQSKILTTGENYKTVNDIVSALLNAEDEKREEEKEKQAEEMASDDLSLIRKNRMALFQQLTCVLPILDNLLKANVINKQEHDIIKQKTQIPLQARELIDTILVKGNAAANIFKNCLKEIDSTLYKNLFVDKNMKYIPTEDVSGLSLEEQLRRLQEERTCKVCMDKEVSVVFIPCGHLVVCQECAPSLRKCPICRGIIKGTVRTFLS

On to `CN[C@@H](C)C(=O)N[C@H]1CN(C(=O)CC(C)C)CC[C@H]2CC[C@@H](C(=O)NC(c3ccccc3)c3ccccc3)N2C1=O` [Debio 1143], for which the “number of CD8+ T cells in the tumor microenvironment” value in the assay with CD8+ T-lymphocytes is “increase in CD8+ T cell number being significant; also recorded: increases the number”. In addition, the “anti-cancer effect (median tumor volume)” value is given as “modest anti-cancer effect” in assay [1] (Debio 1143 100 mg/kg p.o. QD day 1-7 pretreatment alone, then oral vehicle (group 3)); “small additional benefit to Debio 1143 pretreatment alone; also recorded: sensitizes CT26 tumors to a subsequent treatment with an anti-PD-1 antibody” in assay [1] (Debio 1143 100 mg/kg p.o. QD day 1-7 pretreatment, then anti-PD-1 10 mg/kg i.p. BIW (group 4)); “significant additional benefit” in assay [1] (Debio 1143 pretreatment, then anti-PD-1 plus continued daily Debio 1143 (group 5)); “modest anti-cancer effect” in assay [2] (Debio 1143 100 mg/kg p.o. QD day 1-7 pretreatment alone, then control antibody rlgG2b (group 2)); “profound anti-cancer effect; also recorded: sensitizes MC38 tumors to a subsequent treatment with an anti-PD-L1 antibody” in assay [2] (Debio 1143 100 mg/kg p.o. QD day 1-7 pretreatment, then anti-PD-L1 10 mg/kg i.p. BIW (group 4)); “small additional benefit” in assay [2] (Debio 1143 pretreatment day 1-7, then anti-PD-L1 plus continued daily Debio 1143 (group 5), compared with group 4). The “frequency / number of PD-L1-expressing tumor cells” value with PD-L1 was “also increased; also recorded: increases the number”. The “percentage / number of immune cells expressing PD-L1 in tumor” value in the assay with PD-L1 is “increased significantly; also recorded: increases the number”. Besides, the “percentage / number of immune cells expressing PD-1 in tumor” value in the assay with PD-1 is “increased significantly; also recorded: increases the number”. Also, the “number of CD4+ T cells in the tumor microenvironment” value in the assay on CD4+ T-lymphocytes is “both increased; also recorded: increases the number”. Moreover, at cIAP1, the “levels of cIAP1 in the tumors” value is on record as “reduced levels of cIAP1 in the tumors of most patients; also recorded: induces the degradation of cIAP1”.
